Assay results: US20240139205A1, “MODULATORS OF ARALAR FOR TREATING NEUROLOGICAL DISORDERS” (Universite de Lausanne, priority 2020, published 2024)

Tests used:
[1] = tested on: mitochondrial membrane potential; details: literature statement; cited from earlier work
[2] = tested on: GABA release; details: literature statement (Amoroso 1990); cited from earlier work
[3] = tested on: Cyfip^85.1/+ flies; experiment: competition for food assay (total number of social events) in Cyfip haploinsufficient flies; format: in vivo, Drosophila; details: for social behavior deficit (social events): Cyfip^85.1/+ flies fed 5 days, GABA 50 μM, DABA 100 μM, VPA 1 mM; for number of social events: 1 mM in the food, 1 or 2 days
Description: (§1) Experiments were performed with socially experienced, 3-7 days-old male flies. Groups of eight males from the same genotype were anesthetized 24 h prior to the assay and placed in vials with food. On the day of the assay, the males were transferred without anesthesia to an empty vial and were deprived of food for 90 minutes, after which they were exposed to a food droplet and given 2 minutes to acclimate to this disturbance. The flies were then observed simultaneously for an additional 2 minutes, and the total number of social events was scored. Monitored social events were i.e. approaches, lunges, tussles, wing threat and the initiation of courtship. Of note, one interaction involving two or more flies was counted as one social event in total (Zwarts (2011), PNAS 108, 17070-17075. The behavioral assays were conducted in a behavioral chamber (25° C., 60-70% humidity) between 8 a.m. and 11 a.m. Statistics were calculated using a one-way fixed effect ANOVA model, and Kruskal Wallis test in combination with Dunn's multiple comparison test.
(§2) Example 8. GABA augmentation fully normalizes the behavioral abnormalities of Cyfip^85.1/+ flies. GABA levels were augmented in Cyfip^85.1/+ flies in three distinct ways: flies were fed either GABA, DL-2,4-diaminobutyric acid (DABA) which is a GABA-transaminase inhibitor and/or a GABA reuptake inhibitor or the anticonvulsant valproic acid (VPA) which induces GABA release (Chateauvieux (2010), Journal of biomedicine & biotechnology 2010; Coghlan (2012), Neurosci Biobehav Rev 36, 2044-2055; Reynolds (2007), Current medicinal chemistry 14, 2799-2812). All compounds were purchased from Sigma-Aldrich and were used as described before (Kanellopoulos (2012), J Neurosci. 32(38):13111-24; Zwarts (2011), PNAS 108, 17070-17075). In brief, the drugs were dissolved as per the manufacturer's instructions and used at the following concentrations: GABA at 50 μM, DABA 100 μM, Valproic acid (VPA) at 1 mM and Diazepam at 50 μM. Compounds in solution were mixed with Formula 4-24® Instant Drosophila Medium (blue food) in water. Approximately 50-60 adult flies were placed in plastic vials containing 500 μl of each solution on top of an agar matrix and allowed to feed ad libitum before behaviour analysis. Vehicle treatment consisted of solvent added to blue food alone.
Example 16. Drug screening to identify compounds that ameliorate social behavior deficits in flies with Cyfip haploinsufficiency. Control (w1118) or CYFIP (Cyfip^85.1/+) flies were treated, i.e. fed, with various compounds from the Prestwick Chemical Library® as described in Examples 8 and 15. All compounds were used at a concentration of 50 μM. The total number of social interactions was analyzed in a competition for food assay at various time-points (1, 2 or 5 days) of treatment with the compound or vehicle controls as described in Example 2.

[4] = tested on: flies with GABAergic-specific or pan-neuronal Cyfip abrogation; experiment: competition for food assay (social interactions) in flies with Cyfip abrogation (UAS-Cyfip-IR); format: in vivo, Drosophila; details: for social interactions: flies with GABAergic-specific Cyfip abrogation, GABA, DABA or VPA in food
Source text: To control Cyfip expression, the tissue specific GAL4/UAS system was employed (Brand and Perrimon, 1993). […] Specifically, the UAS-Cyfip-RNAi transgene (UAS-Cyfip-IR) was used to abrogate Cyfip expression as described in Galy et al., 2011. To generate GAL4/UAS-Cyfip-IR flies, GAL4/GAL4 females were crossed en masse to UAS-Cyfip-IR/UAS-Cyfip-IR males. The GAL4 drivers are described in Kanellopoulos (2012), J Neurosci. 32(38):13111-24. GAL4 and UAS lines have been isogenized for 6 generations with the w1118 background before crossing. GAL4/GAL4 and UAS-Cyfip-IR/UAS-Cyfip-IR females were also crossed with w^1118 males to generate GAL4/+ and UAS-Cyfip-IR/+ progeny respectively that served as controls which should not produce the RNAi construct.
Tissue-specific GAL4 expression was achieved using the tissue-specific GAL4 promoters as follows: pan-neuronal (Elav), in cholinergic (Cha-Gla4), and GABAergic (Gad-Gal4). To avoid neurodevelopmental problems and possible lethality, the ElavGal4, was combined with the temporal TubGal80^ts system (McGuire et al., 2003; McGuire et al., 2004). At 18° C., TubGal80^ts is expressed and binds GAL4, prohibiting its binding to the UAS (i.e., no transcription of UAS-Cyfip-IR). In contrast, at 29-30° C. TubGal80^ts is degraded and will release GAL4 which in turn will bind the UAS thus activating transcription of UAS-Cyfip-IR. […] All flies/progeny for promoter-Gal4;TubGal80^ts and their controls were cultured at 18° C. and 2-days after eclosion were placed at 29-30° C. allowing UAS-Cyfip-IR transcription.
as §1
Example 8. GABA augmentation fully normalizes the behavioral abnormalities of Cyfip^85.1/+ flies. […]

[5] = tested on: wild type flies; experiment: competition for food assay (total number of social events) in wild type (control) flies; format: in vivo, Drosophila
Description: as §1, §2

[6] = tested on: Cyfip^85.1/+ flies; experiment: Drosophila locomotor activity (DAM system); format: in vivo; details: 10 μM rotenone for 4 days
Description: The Drosophila Activity Monitoring (DAM) system from Trikinetics Inc. (Walthman, MA) was used to record the locomotor activity of flies. Male flies (1-week old), anesthetised on ice, were individually loaded into the locomotor activity-monitoring tubes, thin 5 mm diameter polycarbonate tubes containing 5% sucrose and 2% agar food and incubated for at least 4 days under 12:12 LD (light-dark) conditions at 25° C. and 50-60% humidity. Light was turned on at 7:30 am and turned off at 7:30 pm. The DAM system software counts the number of times the single fly walks through an infrared beam aimed at the middle of the tube. Data were recorded as the number of crossings (transitions) per bin of 5-30 minutes. To allow the flies to recover from anaesthesia and to get acclimatized to the new environment data from the first day was excluded from the analysis. Two independent experiments were performed and at least 40 flies for each genotype were analysed. Statistical analysis was conducted using GraphPad Prism 6.0 software. Data were evaluated by one-way analysis of variance (ANOVA) with Sidak's post hoc test and by non-parametric Kruskal-Wallis's test with Dunn's correction.

[7] = tested on: mitochondrial membrane potential; experiment: mitochondrial membrane potential by TMRE staining of fly brains; format: in vivo, Drosophila; details: wild type flies; oligomycin 500 μM in the food
Description: Briefly, for the TMRE (Enzo) and Rhodamine 123 (Sigma-Aldrich) stainings, brains were dissected in HL3 solution (mM): 110 NaCl, 5 KCl, 10 NaHCO3, 5 Hepes, 30 sucrose, 5 trehalose, and 10 MgCl2, pH 7.2. Dissected brains were stained with 10 nM TMRE or Rhodamine123 dye for 5 minutes at room temperature. Brains were quickly washed with HL3 solution, mounted on glass slides and imaged immediately with confocal microscope Leica SP8 using the same settings for all the samples.
(§3) Since Aralar needs a proton for import of its substrate (i.e. GABA) into mitochondria, the equilibrium distribution of the transport substrates is set by the pH gradient across the mitochondrial membrane, which in turn is a function of fuel availability, oxidative phosphorylation and activity of the TCA cycle.

[8] = tested on: GABA; experiment: GABA levels by ELISA after fractionation of fly brains; format: in vivo, Drosophila; details: wild type flies; oligomycin 500 μM in the food
Description: Finally, GABA levels were measured by ELISA (GABA ELISA Enzyme immunoassay (IBL, ID59301) following a fractionation to enrich for mitochondria or synaptic vesicles (Depner (2014), Nat Protoc 9, 2796-2808). In brief, total brain lysates, isolated mitochondria and vesicles were used for GABA derivatization. The samples were incubated with a polyclonal antibody against GABA-derivative, together with assay reagent containing the GABA-derivative (tracer). The concentration of antibody-bound tracer is inverse proportional to the GABA concentration in the sample. Peroxidase conjugate was added detect the tracer and tetramethylbenzidine (TMB) served as a peroxidase substrate. The absorbance was measured in a microplate photometer at 450 nm.
as §3

Q: Which mitochondrial membrane potential [1] does the source give for `COc1ccc(CN2CCNCC2)c(OC)c1OC.Cl.Cl` [Trimetazidine dihydrochloride, 1-[(2,3,4-trimethoxyphenyl)methyl]piperazine dihydrochloride] here?
A: balances the mitochondrial membrane potential

Q: Which results are given for `CCCNC(=O)NS(=O)(=O)c1ccc(Cl)cc1` [Chlorpropamide, (1-[p-Chlorobenzenesulfony1]-3-propylurea)]?
A: GABA release [2]: indirectly increase GABA release; mitochondrial membrane potential [1]: decrease the mitochondrial membrane potential

Q: With `O=C1CCc2ccc(OCCCCN3CCN(c4cccc(Cl)c4Cl)CC3)cc2N1` [Aripiprazole, 7-[4-[4-(2,3-dichlorophenyl)piperazin-1-yl]butoxy]-3,4-dihydro-1H-quinolin-2-one] as the compound, how does the mitochondrial membrane potential [1] read?
A: decreases the mitochondrial membrane potential

Q: What does the source list for `NCCC(N)C(=O)O` (racemic) [DABA, DL-2,4-diaminobutyric acid]?
A: social behavior deficit (social events) [3]: ameliorated the social behavior deficit; social interactions [4]: restored the social interactions

Q: For `NCCCC(=O)O` [GABA, gamma-Aminobutyric acid], which “social behavior deficit (social events)” value [3] is on record?
A: ameliorated the social behavior deficit

Q: And the “duration of the effect post treatment (competition for food)” value ([3]; Cyfip^85.1/+ flies treated 5 days with GABA, tested post treatment)?
A: 2 days

Q: What about the social interaction ([5]; adult wild-type flies, high GABA diet, 5 days) of the same compound?
A: decreased social interaction

Q: What about the “behavioral deficits (social interactions)” value ([4]; adult pan-neuronal Cyfip abrogation, GABA feeding 5 days) of the same compound?
A: rescued behavioral deficits

Q: And the social interactions [4]?
A: restored the social interactions

Q: Which results are given for `CC(=O)c1ccc(S(=O)(=O)NC(=O)NC2CCCCC2)cc1` [Acetohexamide, 4-Acetyl-N-[(cyclohexylamino)carbonyl]benzenesulfonamide]?
A: GABA release [2]: indirectly increase GABA release; mitochondrial membrane potential [1]: decrease the mitochondrial membrane potential

Q: For `C=C(C)[C@H]1Cc2c(ccc3c2O[C@@H]2COc4cc(OC)c(OC)cc4[C@@H]2C3=O)O1` [rotenone], which “reversibility of the effect of treatment on social behavior” value ([3]; Cyfip^85.1/+ flies treated 4 days with rotenone, tested for 5 days post-treatment) is on record?
A: reversible

Q: And the “social deficits (competition for food)” value ([3]; Cyfip^85.1/+ flies, rotenone 1-10 μM in the food, 4 days)?
A: ameliorate social deficits

Q: And the “behavior of wild type flies (competition for food)” value ([5]; wild type flies, rotenone 1-10 μM in the food, 4 days)?
A: no effect

Q: What about the “hyperactivity (locomotion over 24 hours)” value [6] of the same compound?
A: did not restore the hyperactivity

Q: What about the “hyperactivity (locomotion over 24 hours)” value ([6]; listed as Rotenone) of the same compound?
A: does not rescue hyperactivity

Q: Which results are given for “4-formyl-5-hydroxy-6-methylpyridin-3 yl) methyl dihydrogen phosphate [pyridoxal 5′-phosphate hydrate]”?
A: number of social events ([3]; Cyfip^85.1/+ flies): rescues the deficits in social behavior; number of social events ([3]; Cyfip^85.1/+ flies, listed as PLP): increased the number of social events to the level observed for normal wild type flies; number of social events ([5]; wild type flies, 1 mM in the food, 2 days): reduced the number of social events

Q: Which “mitochondrial membrane potential (TMRE staining)” value [7] does the source give for `CC[C@H]1/C=C/C=C/C[C@@H](C)[C@H](O)[C@@](C)(O)C(=O)[C@@H](C)[C@H](O)[C@@H](C)C(=O)[C@@H](C)[C@H](O)[C@@H](C)/C=C/C(=O)O[C@@H]2[C@H](C)[C@H](CC1)O[C@]1(CC[C@H](C)[C@H](C[C@@H](C)O)O1)[C@H]2C` [oligomycin] here?
A: increasing mitochondrial membrane potential

Q: And the “level of available GABA in the cytosol (ELISA)” value [8]?
A: decreased

Q: What about the competition for food ([5]; wild type flies, oligomycin 500 μM in the food, 1 day) of the same compound?
A: decreased

Q: With `Cc1ccccc1C(C(=O)NC1CCCC1)N(C(=O)Cn1cnc2ccccc21)c1cccc(F)c1` (stereo not drawn) [ML309, 2-(N-[2-(benzimidazol-1-yl)acetyl]-3-fluoroanilino)-N-cyclopentyl-2-(2-methylphenyl)acetamide] as the compound, how does the “abnormal social feeding behavior (social events, competition for food)” value ([3]; Cyfip^85.1/+ flies, ML309 with the food at 50 µM, 1 or 3 days) read?
A: ameliorated the abnormal social feeding behavior

Q: For `CCCC(CCC)C(=O)O` [VPA, valproic acid], which “social behavior deficit (social events)” value [3] is on record?
A: ameliorated the social behavior deficit

Q: And the social interactions [4]?
A: restored the social interactions
